Kb data for 15 molecules are collected here from US10988474B2, “Compounds acting at multiple prostaglandin receptors giving a general anti-inflammatory response” (ALLERGAN, INC., priority 2011, dated 2021).

The structures appear in SMILES notation.

Common to all, as to format: cell-based
For assay [1], the target named is T1, human prostanoid TP receptor (Homo sapiens, UniProt P21731).
T1 construct: expressed in transfected cells
T1 sequence (P21731 1-343): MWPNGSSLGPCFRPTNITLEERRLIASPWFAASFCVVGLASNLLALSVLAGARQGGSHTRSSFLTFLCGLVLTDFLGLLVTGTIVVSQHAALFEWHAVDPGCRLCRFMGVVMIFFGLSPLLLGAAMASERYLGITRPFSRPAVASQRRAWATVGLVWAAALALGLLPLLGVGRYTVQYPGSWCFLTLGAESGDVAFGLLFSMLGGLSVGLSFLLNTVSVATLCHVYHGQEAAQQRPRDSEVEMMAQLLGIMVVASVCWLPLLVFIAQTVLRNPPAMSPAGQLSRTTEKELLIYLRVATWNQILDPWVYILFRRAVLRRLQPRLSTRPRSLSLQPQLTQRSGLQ
As to the kind of experiment: FLIPR Ca2+ signaling PG antagonist assay, TP stable cell line. To be noted: HEK-293 EBNA cells, human recombinant TP, no exogenous G-protein; standard agonist U-46619. The method, then: (§1) The above compounds were tested for PG antagonist activity as follows using human recombinant prostanoid receptor (DP1, EP1-4, FP, IP and TP) stable cell lines: In order to measure the response of Gs and Gi coupled prostanoid receptors as a Ca^2+ signal, chimeric G protein cDNAs were used. Stable cell lines over-expressing human prostanoid DP1, EP1-4, FP, IP, and TP receptors were established as follows:
(§2) Briefly, human prostanoid DP1, EP2, and EP4 receptor cDNAs were co-transfected with chimeric Gqs cDNA containing a haemagglutanin (HA) epitope; human prostanoid EP3 receptors were co-transfected with chimeric Gqi-HA; human EP1, FP, IP, and TP receptor cDNAs were expressed with no exogenous G-proteins. Gqs and Gqi chimeric cDNAs (Molecular Devices, Sunnyvale, Calif., U.S.A.), as well as cDNAs of prostanoid receptors, were cloned into a pCEP4 vector with a hygromycin B selection marker. Transfection into HEK-293 EBNA (Epstein-Barr virus nuclear antigen) cells was achieved by the FuGENE 6 transfection Reagent (Roche Applied Science, Indianapolis, Ind., USA). Stable transfectants were selected according to hygromycin resistance. Because Gqs and Gqi contained an HA epitope, G-protein expression was detected by Western blotting analysis using anti-mouse HA monoclonal antibody and horseradish peroxidase (HRP)-conjugated secondary antibody, while functional expression of prostanoid receptors was detected by FLIPR screening (Matias et al., 2004). These stable cell lines were validated using previously published antagonists at 10 μM against serial dilutions of standard agonists by FLIPR functional assays for Ca^2+ Signaling (as described below).
(§3) Ca^2+ signaling studies were performed using a FLIPR TETRA system (Molecular Devices, Sunnyvale, Calif., USA) in the 384-format. This is a high-throughput instrument for cell-based assays to monitor Ca^2+ signaling associated with GPCRs and ion channels. Cells were seeded at a density of 5×10^4 cells/well in BioCoat poly-D-lysine coated, black wall, clear bottom 384-well plates (BD Biosciences, Franklin lakes, NJ, USA) and allowed to attach overnight in an incubator at 37° C. The cells were then washed twice with HBSS-HEPES buffer (Hanks' balanced salt solution without bicarbonate and phenol red, 20 mM HEPES, pH 7.4) using an ELx405 Select CW Microplate Washer (BioTek, Winooski, Vt., USA). After 60 min of dye-loading in the dark using the Ca^2+-sensitive dye Fluo-4AM (Invitrogen, Carlsbad, Calif., USA), at a final concentration of 2×10^−6M, the plates were washed 4 times with HBSS-HEPES buffer to remove excess dye and leaving 50 μl of buffer in each well. The plates were then placed in the FLIPR TETRA instrument and allowed to equilibrate at 37° C. Compounds were added in a 25 μl volume to each well to give final concentrations of 0.1 μM, 0.3 μM, 1 μM, 3 μM, 10 μM, and 30 μM; or 0.067 μM, 0.1 μM, 0.2 μM, 0.3 μM, 0.67 μM, and 1 μM for cells over-expressing TP receptors. After 4.5 minutes, a 7-point serial dilution of the standard agonist for the corresponding receptor, in a 25 μl volume was injected at the final concentrations from 10^−11M to 10^−5M in 10-fold serial dilution increments for cells expressing human recombinant DP1, EP1, EP2, EP3, EP4, FP, and IP receptors. The dose range for the standard agonist for human recombinant TP receptors was from 10^−12M to 10^−6M. HBSS-HEPES buffer was used as the negative control for the standard agonists. Cells were excited with LED (light emitting diode) excitation at 470-495 nm and emission was measured through an emission filter at 515-575 nm. Assay plates were read for 3.5 minutes using the FLIPR^TETRA. The peak increase in fluorescence intensity was recorded for each well. On each plate, negative controls, dose response of positive controls, and co-treatments of antagonist-agonist for each dose were in triplicates. Standard agonists were as follows: DP=BW 245C, EP1-EP4=PGE2, FP=17-phenyl-PGF2α, IP=Cicaprost, and TP=U-46619. […]

The target of assay [2] is T2, human prostanoid FP receptor (Homo sapiens, UniProt P43088).
T2 construct: expressed in transfected cells
As to the kind of experiment: FLIPR Ca2+ signaling PG antagonist assay, FP stable cell line. To be noted: HEK-293 EBNA cells, human recombinant FP, no exogenous G-protein; standard agonist 17-phenyl-PGF2α. The procedure:
as §1, §2, §3

For assay [3], the target named is T3, human prostanoid EP2 receptor (Homo sapiens, UniProt P43116).
T3 construct: expressed in transfected cells
The assay can be described thus: FLIPR Ca2+ signaling PG antagonist assay, EP2 stable cell line. To be noted: HEK-293 EBNA cells, human recombinant EP2 with chimeric Gqs; standard agonist PGE2. The procedure: as §1, §2, §3

Assay [4] concerns the target T4, human prostanoid DP1 receptor (Homo sapiens, UniProt Q13258).
T4 construct: expressed in transfected cells
T4 sequence (Q13258 1-359): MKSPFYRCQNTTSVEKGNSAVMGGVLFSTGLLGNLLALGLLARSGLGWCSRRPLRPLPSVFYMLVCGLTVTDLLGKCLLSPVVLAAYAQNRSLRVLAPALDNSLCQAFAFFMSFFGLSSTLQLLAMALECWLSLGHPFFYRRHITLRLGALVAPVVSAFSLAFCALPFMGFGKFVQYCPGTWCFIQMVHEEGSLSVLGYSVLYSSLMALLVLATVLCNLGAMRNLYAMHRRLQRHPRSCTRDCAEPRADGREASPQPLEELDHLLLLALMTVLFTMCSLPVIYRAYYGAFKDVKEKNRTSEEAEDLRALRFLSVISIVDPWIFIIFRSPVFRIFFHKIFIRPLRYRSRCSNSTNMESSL
As to the kind of experiment: FLIPR Ca2+ signaling PG antagonist assay, DP1 stable cell line. To be noted: HEK-293 EBNA cells, human recombinant DP1 with chimeric Gqs; standard agonist BW 245C; read-out: DP (Kb, PG antagonist activity). The method, then:
as §1, §2, §3

The target of assay [5] is T5, human prostanoid IP receptor (Homo sapiens, UniProt P43119).
T5 construct: expressed in transfected cells
The assay can be described thus: FLIPR Ca2+ signaling PG antagonist assay, IP stable cell line. To be noted: HEK-293 EBNA cells, human recombinant IP, no exogenous G-protein; standard agonist Cicaprost. The procedure:
as §1, §2, §3

T2 sequence (P43088 whole entry): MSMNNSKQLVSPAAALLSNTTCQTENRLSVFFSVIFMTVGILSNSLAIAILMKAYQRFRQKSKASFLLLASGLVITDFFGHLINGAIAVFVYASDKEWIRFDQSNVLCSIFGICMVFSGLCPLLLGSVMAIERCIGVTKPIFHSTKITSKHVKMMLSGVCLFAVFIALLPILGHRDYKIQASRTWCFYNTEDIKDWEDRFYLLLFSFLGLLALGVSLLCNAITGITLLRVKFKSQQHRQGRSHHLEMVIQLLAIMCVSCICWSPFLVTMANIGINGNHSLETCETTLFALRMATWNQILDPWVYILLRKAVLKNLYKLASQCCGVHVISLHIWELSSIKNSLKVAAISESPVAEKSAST
T3 sequence (P43116 whole entry): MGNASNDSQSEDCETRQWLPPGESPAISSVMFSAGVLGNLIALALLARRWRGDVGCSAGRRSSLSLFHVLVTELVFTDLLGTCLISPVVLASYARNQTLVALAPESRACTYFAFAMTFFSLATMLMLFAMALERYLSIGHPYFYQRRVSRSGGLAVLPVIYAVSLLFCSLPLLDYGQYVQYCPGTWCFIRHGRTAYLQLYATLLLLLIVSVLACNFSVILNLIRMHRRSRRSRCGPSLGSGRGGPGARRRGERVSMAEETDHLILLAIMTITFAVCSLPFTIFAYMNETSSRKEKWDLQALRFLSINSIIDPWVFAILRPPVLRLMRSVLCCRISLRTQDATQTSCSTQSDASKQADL
T5 sequence (P43119 whole entry): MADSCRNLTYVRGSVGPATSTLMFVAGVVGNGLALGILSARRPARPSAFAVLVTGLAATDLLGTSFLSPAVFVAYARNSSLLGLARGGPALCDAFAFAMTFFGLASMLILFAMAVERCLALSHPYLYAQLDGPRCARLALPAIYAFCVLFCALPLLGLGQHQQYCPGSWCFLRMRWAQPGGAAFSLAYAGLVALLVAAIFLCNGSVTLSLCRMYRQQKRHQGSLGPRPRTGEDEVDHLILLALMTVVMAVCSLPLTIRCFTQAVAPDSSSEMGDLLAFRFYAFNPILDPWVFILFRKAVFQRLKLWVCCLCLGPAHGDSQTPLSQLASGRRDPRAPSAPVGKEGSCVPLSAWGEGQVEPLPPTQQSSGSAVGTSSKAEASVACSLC

A word on the Kb: it is the affinity of an antagonist, worked out from how it opposes an agonist. As to `Cc1nn(Cc2cc(OC(F)(F)F)ccc2OCC(C)C)c2ccc(C(=O)O)cc12` [Example 22, 1-(2-Isobutoxy-5-Trifluoromethoxy-Benzyl)-3-Methyl-1H-Indazole-5-Carboxylic Acid], the antagonist dissociation constant (Kb) was 5 nM in assay [1]; 140 nM in assay [2]; at least 10 µM in assay [3]; 1700 nM in assay [4]; 6 µM in assay [5].

Consider `O=C(O)c1ccc2c(cnn2Cc2cc(Br)ccc2OCC2CCCC2)c1` [Example 14, 1-(5-Bromo-2-Cyclopentylmethoxy-Benzyl)-1H-Indazole-5-Carboxylic Acid], for which the Kb in assay [1] amounted to 600 nM; in assay [2], 30 nM; in assay [3] it was 0.4 µM; in assay [4] it was 600 nM; in assay [5], 0.34 µM.

As to `CCC(CC)COc1ccc(Cl)cc1Cn1ncc2cc(C(=O)O)ccc21` [Example 2, 1-[5-Chloro-2-(2-Ethyl-Butoxy)-Benzyl]-1H-Indazole-5-Carboxylic ACID], the Kb came to 110 nM in assay [1]; 160 nM in assay [2]; 2.9 µM in assay [3]; 1300 nM in assay [4]; 1.1 µM in assay [5].

Consider `CCC(CC)COc1ccc(Br)cc1Cn1ccc2cc(C(=O)O)ccc21` [Example 69, 1-[5-Bromo-2-(2-Ethyl-Butoxy)-Benzyl]-1H-Indole-5-Carboxylic Acid], for which the Kb is 550 nM in assay [1]; 800 nM in assay [2]; at least 10 µM in assay [3]; 3700 nM in assay [4]; 3 µM in assay [5].

`Cc1nn(Cc2cc(C(F)(F)F)ccc2OCC(C)C)c2ccc(C(=O)O)cc12` [Example 25, 1-(2-Isobutoxy-5-Trifluoromethyl-Benzyl)-3-Methyl-1H-Indazole-5-Carboxylic Acid]: the antagonist dissociation constant (Kb) in assay [1] turned out to be 50 nM; in assay [2] it was 180 nM; in assay [3], 9.3 µM; in assay [4], 220 nM; in assay [5] it was 1.03 µM.

`CC(C)COc1ccc(Br)cc1Cn1cnc2cc(C(=O)O)ccc21` [Example 79, 1-(5-Bromo-2-Isobutoxy-Benzyl)-1H-Benzoimidazole-5-Carboxylic Acid]: the Kb in assay [1] was 8 nM; in assay [2] it was 80 nM; in assay [3], at least 10 µM; in assay [4], 2000 nM; in assay [5], 7 µM.

As to `O=C(O)c1ccc2c(cnn2Cc2cc(Cl)ccc2OCC2CCCC2)c1` [Example 10, 1-(5-Chloro-2-Cyclopentylmethoxy-Benzyl)-1H-Indazole-5-Carboxylic Acid], the Kb in assay [1] was found to be 20 nM; in assay [2], 30 nM; in assay [3] it was 0.5 µM; in assay [4] it was 440 nM; in assay [5], 0.4 µM.

As for `CCC(CC)COc1ccc(Cl)cc1Cn1cc2c(C(=O)O)cccc2n1` [Example 39, 2-[5-Chloro-2-(2-Ethyl-Butoxy)-Benzyl]-2H-Indazole-4-Carboxylic Acid], the Kb in assay [1] was 110 nM; in assay [2] it was at least 10000 nM; in assay [3] it was at least 10 µM; in assay [4], 1000 nM; in assay [5], 4.9 µM.

Regarding `CC(C)COc1cc(Cl)c(Cl)cc1Cn1ncc2cc(C(=O)O)ccc21` [Example 49, 1-(4,5-Dichloro-2-Isobutoxy-Benzyl)-1H-Indazole-5-Carboxylic Acid], the Kb is 6 nM in assay [1]; 70 nM in assay [2]; at least 10 µM in assay [3]; 3500 nM in assay [4]; 3.2 µM in assay [5].

For the molecule `O=C(O)c1cccc2c1cnn2Cc1cc(Cl)ccc1OCC1CC1` [Example 34, 1-(5-Chloro-2-Cyclopropylmethoxy-Benzyl)-1H-Indazole-4-Carboxylic Acid], the Kb in assay [1] is 100 nM; in assay [2] it was 3200 nM; in assay [3], at least 10 µM; in assay [4] it was 5400 nM; in assay [5], at least 10 µM.

For `CCC(CC)COc1ccc(Cl)cc1Cn1ncc2cc(C(=O)O)ncc21` [Example 63, 1-[5-Chloro-2-(2-Ethyl-Butoxy)-Benzyl]-1H-Pyrazolo[3,4-C]Pyridine-5-Carboxylic Acid], the antagonist equilibrium constant (Kb) was 180 nM in assay [1]; 2400 nM in assay [2]; at least 10 µM in assay [3]; at least 10000 nM in assay [4]; 5 µM in assay [5].

As to `CC(C)COc1ccc(Br)cc1Cn1ncc2c(C(=O)O)cccc21` [Example 7, 1-(5-Bromo-2-Isobutoxy-Benzyl)-1H-Indazole-4-Carboxylic Acid], the antagonist equilibrium constant (Kb) in assay [1] is 20 nM; in assay [2] it was 300 nM; in assay [3], 4.4 µM; in assay [4], 1900 nM; in assay [5], 1.3 µM.

On to `Cc1nn(Cc2cc(Br)ccc2OCC(C)C)c2ccc(C(=O)O)cc12` [Example 21, 1-(5-Bromo-2-Isobutoxy-Benzyl)-3-Methyl-1H-Indazole-5-Carboxylic Acid], for which the antagonist equilibrium constant (Kb) worked out at 13 nM in assay [1]; 30 nM in assay [2]; 3.5 µM in assay [3]; 100 nM in assay [4]; 0.9 µM in assay [5].

With `Cc1nn(Cc2cc(Cl)ccc2OCC(C)C)c2ccc(C(=O)O)cc12` [Example 24, 1-(5-Chloro-2-Isobutoxy-Benzyl)-3-Methyl-1H-Indazole-5-Carboxylic Acid], the antagonist equilibrium constant (Kb) in assay [1] is 80 nM; in assay [2] it was 40 nM; in assay [3], 4.5 µM; in assay [4] it was 160 nM; in assay [5], 1.43 µM.

Regarding `O=C(O)c1ccc2c(cnn2Cc2cc(C(F)(F)F)ccc2OCc2ccc(Cl)cc2)c1` [Example 32, 1-[2-(4-Chloro-Benzyloxy)-5-Trifluoromethyl-Benzyl]-1H-Indazole-5-Carboxylic Acid], the antagonist equilibrium constant (Kb) in assay [1] was 50 nM; in assay [2], 50 nM; in assay [3], at least 10 µM; in assay [4], 1700 nM; in assay [5] it was 7.4 µM.
